Source: patent US4042695A, “Thiaxanthene derivatives, compositions thereof and methods of treating therewith” (priority 1972, dated 1977)
Like-named read-outs stand apart in the source and are kept apart here.

Experiments:
rats = assay: Antagonism of amphetamine-induced stereotyped behaviour in rats; assay type: in vivo; conditions: oral; for ED50: Rattus norvegicus
Experimental: The modification used by us was as follows:
The animals were then placed in individual cages. […] The absence of stereotypy was interpreted as a drug effect. ED50 values for protection against stereotypy were determined. All compounds were tested at a minimum of three dose levels using 10 rats per dose, and the observer was kept unaware of the identity of the groups until after the experiment.

[1] = Pharmacological tests (test not specified); conditions: in vivo; listed as Example 12 alpha-isomer
[2] = system: adult purebred Beagle dogs; assay: Apomorphine antagonism in dogs; assay type: in vivo; conditions: ordinary doses, prolonged treatment

Q: Which results are given for OCCC1CCN(CCC=C2c3ccc(F)cc3Sc3ccc(C(F)(F)F)cc32)CC1 [Substance 13, alpha-isomer of 2-trifluoromethyl-6-fluoro-9-(3-(4-(2-hydroxyethyl)-1-piperidyl)propylidene)-thiaxanthene]?
A: ED50 (rats; 24 hours after administration, read-out: ED50 for protection against stereotypy, peak effect (24 hours)): 0.04 mg/kg; ED50 (rats; 48 h, read-out: ED50 for protection against stereotypy, 48 h): 0.2 mg/kg; ED50 (rats; 72 h, read-out: ED50 for protection against stereotypy, 72 h): 0.9 mg/kg; ED50 (rats; 96 h, read-out: ED50 for protection against stereotypy, 96 h): 2.3 mg/kg; time of peak effect, amphetamine antagonism (rats): 24 h; amphetamine antagonistic effect 4 days after administration (in words) (rats; 4 days): rather weak; pharmacological activity of the isomer (in words) [1]: pharmacologically active; feed intake and survival [2]: did not take feed to a sufficient degree and, accordingly tended to die by starvation
